Patent US6869973B2, “Nitrosated and nitrosylated taxanes, compositions and methods of use” (NitroMed, Inc., priority 2000, dated 2005)
Where two headings read alike, the source gives them in different places.

What was measured:
[1] = system: human coronary artery smooth muscle cells (CASMC); experiment: Vascular smooth muscle cell (SMC) antiproliferation assay; type: cell-based
Experimental: The cells used in this assay were human coronary artery smooth muscle cells (CASMC) supplied by Clonetics Corp. (San Diego, Calif.). They were maintained in SmGM-2 growth medium (Clonetics Corp.), which consisted of modified MCDB 131 medium supplemented with 5% (v/v) fetal bovine serum (FBS), 0.5 ng/mL human recombinant epidermal growth factor (EGF), 2 ng/mL human recombinant fibroblast growth factor (FGF), 5 μg/mL bovine insulin, 50 μg/mL gentamicin sulfate, and 50 ng/mL amphotericin B under humidified 95% air-5% CO2 at 37° C.
For the SMC antiproliferation assay, the cells were seeded at 3×10^4 viable cells in 2 mL of SmGM-2 medium per well of a Corning 24 well plate (Corning, N.Y.). Stock solutions of the test compounds were prepared just prior to addition to the cells by dissolving in ethanol at a concentration of 40 mM. This stock solution was diluted, as required, with ethanol to lower concentrations. […] Control cultures received 2 μL of ethanol per well (n=4). On the following morning, the cultures were examined microscopically and their condition recorded. On the third day after test compound addition (˜68 hr), the cultures were examined microscopically again and the viable cells counted with an hemacytometer following trypsinization with 0.25% trypsin-1 mM EDTA. Trypan Blue dye exclusion was used to discriminate between viable and dead cells.
(§1) The SMC antiproliferation assay was performed as described in Example 5.
as §1

rabbit platelets = experiment: Rabbit platelet aggregation assay (ADP-induced, platelet-rich plasma); type: cell-based, New Zealand White rabbits; conditions: rabbit PRP, 2 min pre-incubation, FIG. 2; for effect on platelet aggregation (qualitative): concentrations higher than 1 μM
Experimental: Blood was collected from New Zealand White rabbits into a sodium citrate solution. Platelet-rich plasma (PRP) and platelet-poor plasma (PPP) were obtained by centrifugation of the citrated blood. Aggregation of the platelets, which was induced by addition of adenosine diphosphate (ADP), was measured in a Chrono-Log Aggregometer (Havertown, Pa.). Stock solutions of the test compounds were prepared in ethanol at concentrations 1000-fold higher than the final concentrations. The test compounds at these different concentrations were pre-incubated with the PRP for 2 min with stirring prior to the addition of ADP. Inhibition of aggregation was quantified as follows: % Inhibition=100% (1−(Max. Ampl. Agg. in Test Compound/Max. Ampl. Agg. Control)) • “Max. Ampl. Agg. In Test Compound” was the measured maximum amplitude of the platelets in the PRP in the presence of and after pre-incubation with the test compound. • “Max. Ampl. Agg. Control” was the measured maximum amplitude of the platelets in the PRP without test compound addition.
Nitric oxide inhibits the aggregation of platelets whether added as the gas or in the form of a NO donor.

[2] = CASMC, viable cell count ~68 hr after compound addition, FIG. 1 / FIG. 3
[3] = CASMC, qualitative ranking against comparator named in the sentence

Row | Compound | concentration that totally suppressed cell proliferation of the seeded cells [1, 2] [µM] | comparison of inhibition of proliferation of vascular smooth muscle cells [1, 3] | effect on platelet aggregation (qualitative) (rabbit platelets) | other results
1 | 9-(2-({((2R)-2,3-bis(nitrooxy)propyl)oxycarbonyl}methoxy)acetyloxy)(1S,2S,4S,9S,10S,15S,7R,12R)-4,12-diacetyloxy-1-hydroxy-10,14,17,17-tetramethyl-6-oxa-11-oxo-2 phenylcarbonyloxytetracyclo (11.3.1.0<3,10>0.0<4,7>)heptadec-13-en-15-yl 2-(2-({((2R)-2,3-bis(nitrooxy)propyl)oxycarbonyl}methoxy)acetyloxy)(3S,2R)-3-phenyl-3-(phenylcarbonylamino)propanoate [Example 3] |  |  |  | comparison of inhibition of proliferation of vascular smooth muscle cells [1]: superior to paclitaxel; concentration that totally suppressed cell proliferation of the seeded cells [1]: 1 µM
2 | CC(=O)O[C@H]1C(=O)[C@@]2(C)C([C@H](OC(=O)c3ccccc3)C3(O)C[C@H](OC(=O)[C@H](O)[C@@H](NC(=O)c4ccccc4)c4ccccc4)C(C)=C1C3(C)C)[C@]1(OC(C)=O)CO[C@@H]1C[C@@H]2OC(=O)CC(C)(C)SN=O (stereo partly drawn) [Example 1, 15-((3S,2R)-2-hydroxy-3-phenyl-3-(phenylcarbonylamino)propanoyloxy) (2S,4S,9S,10S,15S,7R,12R)-4,12-diacetyloxy-1-hydroxy-10,14,17,17-tetramethyl-6-oxa-11-oxo-2-phenylcarbonyloxytetracyclo (11.3.1.0<3,10>0.0<4,7>)heptadec-13-en-9-yl 3-methyl-3-(nitrosothio) butanoate] | 0.1 | superior to its non-nitrosylated derivative (Example 1d) | inhibited platelet aggregation, but required higher concentrations than SNO-Glu | 
3 | CC(=O)O[C@H]1C(=O)[C@@]2(C)C([C@H](OC(=O)c3ccccc3)[C@]3(O)C[C@H](OC(=O)[C@H](O)[C@@H](NC(=O)c4ccccc4)c4ccccc4)C(C)=C1C3(C)C)[C@]1(OC(C)=O)CO[C@@H]1C[C@@H]2OC(=O)CC(C)(C)S (stereo partly drawn) [Example 1d, 15-((3S,2R)-2-hydroxy-3-phenyl-3-(phenylcarbonylamino)propanoyloxy) (2S,4S,9S,10S,15S,7R,12R)-4,12-diacetyloxy-1-hydroxy-10,14,17,17-tetramethyl-6-oxa-11-oxo-2-phenylcarbonyloxytetracyclo(11.3.1.0<3,10>0.0<4,7>)heptadec-13-en-9-yl 3-methyl-3-sulfanylbutanoate] | 0.1 |  | did not prevent platelet aggregation | 
4 | CC(=O)OC1C(=O)C2(C)C(OC(=O)COCC(=O)OCC(CO[N+](=O)[O-])(CO[N+](=O)[O-])CO[N+](=O)[O-])CC3OCC3(OC(C)=O)C2C(OC(=O)c2ccccc2)C2(O)CC(OC(=O)C(OC(=O)COCC(=O)OCC(CO[N+](=O)[O-])(CO[N+](=O)[O-])CO[N+](=O)[O-])C(NC(=O)c3ccccc3)c3ccccc3)C(C)=C1C2(C)C [Example 4, (1S,2S,4S,9S,10S,15S,7R,12R)-4,12-diacetyloxy-9-{2-(({2,2-bis((nitrooxy)methyl)-3-(nitrooxy)propyl}oxycarbonyl)methoxy)acetyloxy}-1-hydroxy-10,14,17,17-tetramethyl-6-oxa-11-oxo-2-phenylcarbonyloxytetracyclo (11.3.1.0<3,10>0.0<4,7>)heptadec-13-en-15-yl(3S,2R)-2-{2-(({2,2-bis ((nitrooxy)methyl)-3-(nitrooxy)propyl}oxycarbonyl)methoxy)acetyloxy}-3-phenyl-3-(phenylcarbonylamino)propanoate] | 1 | superior to paclitaxel |  | 
5 | CC(=O)O[C@H]1C(=O)[C@@]2(C)[C@H]([C@H](OC(=O)c3ccccc3)[C@]3(O)C[C@H](OC(=O)[C@H](O)[C@@H](NC(=O)c4ccccc4)c4ccccc4)C(C)=C1C3(C)C)[C@]1(OC(C)=O)CO[C@@H]1C[C@@H]2O [Paclitaxel, reference compound] | 0.01 |  | did not prevent platelet aggregation | 
6 | N[C@@H](CCC(=O)N[C@@H](CSN=O)C(=O)NCC(=O)O)C(=O)O [S-Nitrosoglutathione, reference compound] |  |  |  | final concentration that totally inhibited platelet aggregation (rabbit platelets): 1 µM
